24 molecules from patent publication US10414774B2, “Compound useful for altering the levels of bile acids for the treatment of diabetes and cardiometabolc disease” (Merck Sharp & Dohme Corp., priority 2016, dated 2019) can be followed below.

The target of the assay is T1, Human CYP8B1 (Homo sapiens, UniProt Q9UNU6).
T1 sequence (Q9UNU6 1-501): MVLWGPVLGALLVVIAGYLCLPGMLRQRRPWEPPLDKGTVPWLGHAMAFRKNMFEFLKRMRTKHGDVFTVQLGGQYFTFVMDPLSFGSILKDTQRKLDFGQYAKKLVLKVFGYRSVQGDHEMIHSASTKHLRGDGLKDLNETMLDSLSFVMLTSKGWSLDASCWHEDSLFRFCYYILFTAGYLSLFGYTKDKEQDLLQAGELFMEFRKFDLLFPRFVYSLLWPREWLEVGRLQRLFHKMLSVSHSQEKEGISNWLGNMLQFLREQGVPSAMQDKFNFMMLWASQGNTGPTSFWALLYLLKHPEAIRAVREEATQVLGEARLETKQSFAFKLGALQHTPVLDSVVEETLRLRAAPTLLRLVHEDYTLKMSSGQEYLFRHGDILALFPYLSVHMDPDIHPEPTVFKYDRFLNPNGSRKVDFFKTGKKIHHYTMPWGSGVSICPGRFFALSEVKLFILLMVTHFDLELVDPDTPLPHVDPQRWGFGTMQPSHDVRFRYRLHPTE
In words: Human CYP8B1 Liver Microsome Assay. Conditions: Human CYP8B1 IC50, human liver microsomes; substrate 7a-hydroxy-4-cholesten-3-one, NADPH; RapidFire MS detection of 7α,12α-dihydroxy-4-cholesten-3-one.
For the molecule `C[C@@H]1CN(c2c(C#N)cnc3ncc(Br)cc23)CC[C@@H]1C(=O)N1CCn2c(nnc2C(F)(F)F)C1` [Example 30, 6-bromo-4-[(3S,4S)-3-methyl-4-{[3-(trifluoromethyl)-5,6-dihydro[1,2,4]triazolo[4,3-a]pyrazin-7(8H)-yl]carbonyl}piperidin-1-yl]-1,8-naphthyridine-3-carbonitrile], the IC50 (in general, the concentration that inhibits the measured activity by half) came to 30 nM.
The value for `C[C@@H]1CN(c2c(C#N)cnc3cnc(F)cc23)CC[C@@H]1C(=O)N1CCn2c(nnc2C(F)(F)F)C1` [Example 31, 6-fluoro-4-[(3S,4S)-3-methyl-4-{[3-(trifluoromethyl)-5,6-dihydro[1,2,4]triazolo[4,3-a]pyrazin-7(8H)-yl]carbonyl}piperidin-1-yl]-1,7-naphthyridine-3-carbonitrile] was 2.6 nM.
The value for `COc1ccc2nc(C)c(C#N)c(N3CC[C@H](C(=O)N4CCn5c(nnc5C(F)(F)F)C4)[C@H](C)C3)c2c1` [Example 32, 6-methoxy-2-methyl-4-[(3S,4S)-3-methyl-4-{[3-(trifluoromethyl)-5,6-dihydro[1,2,4]triazolo[4,3-a]pyrazin-7(8H)-yl]carbonyl}piperidin-1-yl]quinoline-3-carbonitrile] was 2.9 nM.
`C[C@@H]1CN(c2c(C#N)cnc3cccnc23)CC[C@@H]1C(=O)N1CCn2c(nnc2C(F)(F)F)C1` [Example 33, 4-[(3S,4S)-3-methyl-4-{[3-(trifluoromethyl)-5,6-dihydro[1,2,4]triazolo[4,3-a]pyrazin-7(8H)-yl]carobnyl}piperidin-1-yl]-1,5-naphthyridine-3-carbonitrile]: the midpoint of inhibition, the IC50, lay at 1.3 nM.
The same measure for `COc1ccc2c(N3CC[C@H](C(=O)N4CCn5c(nnc5C(F)(F)F)C4)[C@H](C)C3)c(C#N)c(C)nc2c1` [Example 34, 7-methoxy-2-methyl-4-[(3S,4S)-3-methyl-4-{[3-(trifluoromethyl)-5,6-dihdyro[1,2,4]triazolo[4,3-a]pyrazin-7(8H)-yl]carbonyl}piperidin-1-yl]quinoline-3-carbonitrile]: 0.89 nM; for `COc1cccc2nc(C)c(C#N)c(N3CC[C@H](C(=O)N4CCn5c(nnc5C(F)(F)F)C4)[C@H](C)C3)c12` [Example 35, 5-methoxy-2-methyl-4-[(3S,4S)-3-methyl-4-{[3-(trifluoromethyl)-5,6-dihydro[1,2,4]triazolo[4,3-a]pyrazin-7(8H)-yl]carbonyl}piperidin-1-yl]quinoline-3-carbonitrile]: 1.4 nM; for `C[C@@H]1CN(c2c(C#N)cnc3c(F)c(OC(F)F)ccc23)CC[C@@H]1C(=O)N1CCn2c(nnc2C(F)(F)F)C1` [Example 36, 7-(difluoromethoxy)-8-fluoro-4-[(3S,4S)-3-methyl-4-{[3-(trifluoromethyl)-5,6-dihdyro[1,2,4]triazolo[4,3-a]pyrazin-7(8H)-yl]carbonyl}piperidin-1-yl]quinoline-3-carbonitrile]: 0.4 nM.
The molecule `CC(C)Oc1ccc2c(N3CC[C@H](C(=O)N4CCn5c(nnc5C(F)(F)F)C4)[C@H](C)C3)c(C#N)cnc2c1F` [Example 37, 8-fluoro-4-[(3S,4S)-3-methyl-4-{[3-(trifluoromethyl)-5,6-dihydro[1,2,4]triazolo[4,3-a]pyrazin-7(8H)-yl]carbonyl}piperidin-1-yl]-7-(propan-2-yloxy)quinoline-3-carbonitrile] gave an IC50 of 0.54 nM.
The same measure for `C[C@@H]1CN(c2c(C#N)cnc3cc(OC4CC4)ccc23)CC[C@@H]1C(=O)N1CCn2c(nnc2C(F)(F)F)C1` [Example 38, 7-(cyclopropyloxy)-4-[(3S,4S)-3-methyl-4-{[3-(trifluoromethyl)-5,6-dihydro[1,2,4]triazolo[4,3-a]pyrazin-7(8H)-yl]carbonyl}piperidin-1-yl]quinoline-3-carbonitrile]: 0.3 nM; for `CCOc1ccc2c(N3CC[C@H](C(=O)N4CCn5c(nnc5C(F)(F)F)C4)[C@H](C)C3)c(C#N)cnc2c1` [Example 39, 7-ethoxy-4-[(3S,4S)-3-methyl-4-{[3-(trifluoromethyl)-5,6-dihydro[1,2,4]triazolo[4,3-a]pyrazin-7(8H)-yl]carbonyl}piperidin-1-yl]quinoline-3-carbonitrile]: 0.7 nM.
The value for `N#Cc1cnc2cc(Br)ccc2c1N1CCC(C(=O)N2CCn3c(nnc3C(F)(F)F)C2)CC1` [Example 40, 7-bromo-4-(4-{[3-(trifluoromethyl)-5,6-dihydro[1,2,4]triazolo[4,3-a]pyrazin-7(8H)-yl]carbonyl}piperidin-1-yl)quinoline-3-carbonitrile] was 12 nM; that for `N#Cc1cnc2c(F)c(Cl)ccc2c1N1CCC(C(=O)N2CCn3c(nnc3C(F)(F)F)C2)CC1` [Example 41, 7-chloro-8-fluoro-4-(4-{[3-(trifluoromethyl)-5,6-dihdyro[1,2,4]triazolo[4,3-a]pyrazin-7(8H)-yl]carbonyl}piperidin-1-yl)quinoline-3-carbonitrile] was 43 nM; that for `COc1ccc2c(N3CCC(C(=O)N4CCn5c(nnc5C(F)(F)F)C4)CC3)c(C#N)cnc2c1F` [Example 42, 8-fluoro-7-methoxy-4-(4-{[3-(trifluoromethyl)-5,6-dihydro[1,2,4]triazolo[4,3-a]pyrazin-7(8H)-yl]carbonyl}piperidin-1-yl)quinoline-3-carbonitrile] was 49 nM.
In turn, `N#Cc1cnc2cc(C(F)(F)F)ccc2c1N1CCC(C(=O)N2CCn3c(nnc3C(F)(F)F)C2)CC1` [Example 43, 7-(trifluoromethyl)-4-(4-{[3-(trifluoromethyl)-5,6-dihydro[1,2,4]triazolo[4,3-a]pyrazin-7(8H)-yl]carbonyl}piperidin-1-yl)quinoline-3-carbonitrile] came in with an IC50 of 6.3 nM.
The value for `COc1ccc2c(N3CCC(C(=O)N4CCn5c(nnc5C(F)(F)F)C4)CC3)c(C#N)cnc2c1` [Example 44, 7-methoxy-4-(4-{[3-(trifluoromethyl)-5,6-dihydro[1,2,4]triazolo[4,3-a]pyrazin-7(8H)-yl]carbonyl}piperidin-1-yl)quinoline-3-carbonitrile] was 32 nM.
On to `Cc1nc2ccc(F)cc2c(N2CCC(C(=O)N3CCn4c(nnc4C(F)(F)F)C3)CC2)c1C#N` [Example 45, 6-fluoro-2-methyl-4-(4-(3-(trifluoromethyl)-5,6,7,8-tetrahydro-[1,2,4]triazolo[4,3-a]pyrazine-7-carbonyl)piperidin-1-yl)quinoline-3-carbonitrile], for which it took 1150 nM to reach half-maximal inhibition (IC50).
With `COc1ccc2ncc(C#N)c(N3CCC(C(=O)N4CCn5c(nnc5C(F)(F)F)C4)CC3)c2c1` [Example 46, 6-methoxy-4-(4-(3-(trifluoromethyl)-5,6,7,8-tetrahydro-[1,2,4]triazolo[4,3-a]pyrazine-7-carbonyl)piperidin-1-yl)quinoline-3-carbonitrile], the IC50 came to 68 nM.
The same measure for `COc1ccc2nc(C)c(C#N)c(N3CCC(C(=O)N4CCn5c(nnc5C(F)(F)F)C4)CC3)c2c1` [Example 47, 6-methoxy-2-methyl-4-(4-(3-(trifluoromethyl)-5,6,7,8-tetrahydro-[1,2,4]triazolo[4,3-a]pyrazin-7-carbonyl)piperidin-1-yl)quinoline-3-carbonitrile]: 564 nM.
The molecule `Cc1nc2ccc(Br)cc2c(N2CCC(C(=O)N3CCn4c(nnc4C(F)(F)F)C3)CC2)c1C#N` [Example 48, 6-bromo-2-methyl-4-(4-(3-(trifluoromethyl)-5,6,7,8-tetrahydro-[1,2,4]triazolo[4,3-a]pyrazine-7-carbonyl)piperidin-1-yl)quinoline-3-carbonitrile] showed an IC50 of 109 nM.
The same measure for `Cc1nc2c(F)cc(F)cc2c(N2CCC(C(=O)N3CCn4c(nnc4C(F)(F)F)C3)CC2)c1C#N` [Example 49, 6,8-difluoro-2-methyl-4-(4-(3-(trifluoromethyl)-5,6,7,8-tetrahydro-[1,2,4]triazolo[4,3-a]pyrazine-7-carbonyl)piperidin-1-yl)quinoline-3-carbonitrile]: 1730 nM; for `Cc1nc2cc(F)c(F)cc2c(N2CCC(C(=O)N3CCn4c(nnc4C(F)(F)F)C3)CC2)c1C#N` [Example 50, 6,7-difluoro-2-methyl-4-(4-(3-(trifluoromethyl)-5,6,7,8-tetrahydro-[1,2,4]triazolo[4,3-a]pyrazine-7-carbonyl)piperidin-1-yl)quinoline-3-carbonitrile]: 2260 nM; for `Cc1nc2ccc(F)c(F)c2c(N2CCC(C(=O)N3CCn4c(nnc4C(F)(F)F)C3)CC2)c1C#N` [Example 51, 5,6-difluoro-2-methyl-4-(4-(3-(trifluoromethyl)-5,6,7,8-tetrahydro-[1,2,4]triazolo[4,3-a]pyrazine-7-carbonyl)piperidin-1-yl)quinoline-3-carbontrile]: 774 nM.
The value for `Cc1ccc2nc(C)c(C#N)c(N3CCC(C(=O)N4CCn5c(nnc5C(F)(F)F)C4)CC3)c2c1` [Example 52, 2,6-dimethyl-4-(4-(3-(trifluoromethyl)-5,6,7,8-tetrahydro-[1,2,4]triazolo[4,3-a]pyrazine-7-carbonyl)piperidin-1-yl)quinoline-3-carbonitrile] was 118 nM; that for `Cc1nc2ccc(C3CC3)cc2c(N2CCC(C(=O)N3CCn4c(nnc4C(F)(F)F)C3)CC2)c1C#N` [Example 53, 6-cyclopropyl-2-methyl-4-(4-(3-(trifluoromethyl)-5,6,7,8-tetrahydro-[1,2,4]triazolo[4,3-a]pyrazine-7-carbonyl)piperidin-1-yl)quinoline-3-carbonitrile] was 76 nM.
